Test results reported in patent US12403137B2, “Compounds and methods of use” (Tango Therapeutics, Inc., priority 2019, dated 2025).
pIC50: −log10 of the molar value.

How the values were obtained:
PRMT5 [1] = molecular target: T1, PRMT5 (Homo sapiens, UniProt O14744); assay: PRMT5 inhibition assay with SAM as cofactor; assay type: biochemical; conditions: against PRMT5 in the presence of SAM as cofactor
T1 construct: purchased Viva (custom protein)
Text: (§1) The Ki values can be calculated from the IC50 values as described in the Examples section. As detailed in the Examples section, for the assay performed in the presence of SAM, IC50=Ki×1.5 (Ki=IC50/1.5). For the assay performed in the presence of MTA, IC50=Ki×13.5 (Ki=IC50/13.5). Column 6 indicates the ratio between the Ki of compounds in the presence of SAM and the Ki of compounds in the presence of MTA

PRMT5 [2] = molecular target: T1, PRMT5; assay: PRMT5 inhibition assay with no cofactor; assay type: biochemical; conditions: against PRMT5 with no cofactor; read-out: No Co-factor IC50
PRMT5 [3] = molecular target: T1, PRMT5; assay: PRMT5 inhibition assay with MTA as cofactor; assay type: biochemical
Text: as §1

[4] = test system: HAP1 MTAP-intact cell line; assay: SDMA in-cell western assay, HAP1 MTAP-intact; assay type: cell-based; conditions: Homo sapiens
In short: (§2)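 IC50 values come from an SDMA in-cell western run in isogenic HAP1 cells, either MTAP-null or expressing endogenous MTAP. The intact-to-deleted IC50 ratio is used to score MTAP selectivity.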

[5] = test system: HAP1 MTAP-deleted cell line; assay: SDMA in-cell western assay, HAP1 MTAP-deleted; assay type: cell-based
In short: as §2

T1 sequence (O14744 whole entry): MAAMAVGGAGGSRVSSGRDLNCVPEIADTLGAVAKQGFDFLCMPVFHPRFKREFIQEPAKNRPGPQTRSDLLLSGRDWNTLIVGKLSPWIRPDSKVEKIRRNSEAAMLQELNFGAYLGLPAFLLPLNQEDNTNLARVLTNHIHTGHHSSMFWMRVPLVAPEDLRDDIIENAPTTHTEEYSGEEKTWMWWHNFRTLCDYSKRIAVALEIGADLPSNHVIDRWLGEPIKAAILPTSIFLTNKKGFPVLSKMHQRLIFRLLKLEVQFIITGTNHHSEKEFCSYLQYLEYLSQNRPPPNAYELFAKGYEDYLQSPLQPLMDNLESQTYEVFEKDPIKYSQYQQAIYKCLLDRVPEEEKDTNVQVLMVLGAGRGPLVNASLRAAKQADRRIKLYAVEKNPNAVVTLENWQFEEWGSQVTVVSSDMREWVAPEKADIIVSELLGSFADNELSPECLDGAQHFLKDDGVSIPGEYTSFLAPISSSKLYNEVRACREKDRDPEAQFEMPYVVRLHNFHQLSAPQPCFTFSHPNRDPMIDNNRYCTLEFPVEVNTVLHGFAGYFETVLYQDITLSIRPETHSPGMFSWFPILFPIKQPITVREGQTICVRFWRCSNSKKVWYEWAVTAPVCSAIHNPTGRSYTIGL
T1 sequence (Q9BQA1 whole entry partner): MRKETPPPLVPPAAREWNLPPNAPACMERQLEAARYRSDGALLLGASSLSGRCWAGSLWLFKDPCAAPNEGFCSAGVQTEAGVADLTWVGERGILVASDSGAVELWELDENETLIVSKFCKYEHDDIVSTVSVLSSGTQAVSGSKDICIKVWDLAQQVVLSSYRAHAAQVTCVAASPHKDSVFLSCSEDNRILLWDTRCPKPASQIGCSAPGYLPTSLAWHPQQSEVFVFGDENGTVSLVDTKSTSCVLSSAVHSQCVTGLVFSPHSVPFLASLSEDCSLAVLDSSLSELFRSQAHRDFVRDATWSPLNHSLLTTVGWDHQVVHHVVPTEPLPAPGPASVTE

pIC50 (PRMT5 [1]): 6.30 to 7.30
pIC50 (PRMT5 [2]): 6.30 to 7.30
pIC50 (PRMT5 [3]; against PRMT5 with MTA as cofactor): > 7.30
pIC50 [4]: ≤ 5.00
pIC50 ([5]; Homo sapiens, HAP1 MTAP-deleted (MTAP-null) cell line): > 6.00
Compound: CC(=O)N1CC(Nc2cc(C(=O)NC[C@@H](O)[C@@H]3Cc4ccc(OCc5ocnc5C)cc4CN3)cc(N3CCCCC3)n2)C1 [Compound 45, 2-[(1-acetylazetidin-3-yl)amino]-N-[(2R)-2-hydroxy-2-[(3S)-7-[(4-methyloxazol-5-yl)methoxy]-1,2,3,4-tetrahydroisoquinolin-3-yl]ethyl]-6-(1-piperidyl)pyridine-4-carboxamide]
SAM/MTA Ratio (PRMT5 [3]; ratio of Ki in the presence of SAM to Ki in the presence of MTA, Ki=IC50/1.5 (SAM), Ki=IC50/13.5 (MTA)): A (a Ki ratio greater than or equal to 10 fold between the Ki in the presence of SAM and the Ki in the presence of MTA)
MTAP Intact/Deleted Ratio ([5]; IC50 ratio HAP1 MTAP-intact / HAP1 MTAP-deleted, >=3 fold considered MTAP-selective): A* (an IC50 ratio greater than or equal to 10 fold between the IC50 in the HAP1 MTAP-intact cell line and the HAP1 MTAP-deleted cell line)
